Here are results for twelve compounds from ChEMBL document CHEMBL3217653, “Design and synthesis of -amino alcohol based -lactamisatin chimeras and preliminary analysis of in vitro activity against the protozoal pathogen Trichomonas vaginalis” (Medchemcomm, 2013).

The subject of data set [1] is Trichomonas vaginalis. In words: Antimicrobial activity against Trichomonas vaginalis G3 assessed as growth inhibition after 24 hrs by hemocytometry. The class given is functional. The conditions noted are these: G3, 24 h.
For data set [2], the system named is Trichomonas vaginalis. Put plainly: Antimicrobial activity against Trichomonas vaginalis G3 assessed as growth inhibition at 50 uM after 24 hrs by hemocytometry. The class given is functional. The conditions noted are these: G3, 24 h, read-out: GI.
Data set [3] in a line: Cytotoxicity against human HeLa cells assessed as cell viability at 10 uM after 24 hrs by trypan blue assay relative to bleomycin. The class given is cell-based. The conditions noted are these: read-out: Activity.

On to `O=C1C(=O)N(CC(CO)N[C@@H]2C(=O)N(c3ccc(Cl)cc3)[C@@H]2/C=C/c2ccccc2)c2ccccc21` (some centres undefined), for which, in data set [1], the IC50 was 24.7 µM. Besides, the inhibition of growth at 50 µM in data set [2] was 76.2%. Turning to `O=C1C(=O)N(CC(CO)N[C@@H]2C(=O)N(c3ccc(Cl)cc3)[C@@H]2/C=C/c2ccccc2)c2ccc(Cl)cc21` (relative stereo), the viability at 24 h, 10 µM in data set [3] amounted to 30%. Moreover, in data set [1], the IC50 was 9.73 µM. In data set [2], the inhibition of growth at 50 µM is 97.1%.

For the compound `O=C1C(=O)N(CC(CO)N[C@@H]2C(=O)N(c3ccc(Cl)cc3)[C@@H]2/C=C/c2ccccc2)c2ccc(F)cc21` (some centres undefined), the IC50 in data set [1] amounted to 27.4 µM. For the same compound, the inhibition of growth at 50 µM in data set [2] is 77.2%.

With `Cc1ccc2c(c1)C(=O)C(=O)N2CC(CO)N[C@@H]1C(=O)N(c2ccc(Cl)cc2)[C@@H]1/C=C/c1ccccc1` (some centres undefined), the IC50 in data set [1] is 14.6 µM. In addition, the inhibition of growth at 50 µM in data set [2] turned out to be 97.6%. Regarding `Cc1ccc(N2C(=O)[C@@H](NC(CO)CN3C(=O)C(=O)c4cc(Cl)ccc43)[C@H]2/C=C/c2ccccc2)cc1` (relative stereo), the inhibition of growth at 50 µM in data set [2] was 59.8%. Take `Cc1ccc2c(c1)C(=O)C(=O)N2CC(CO)N[C@@H]1C(=O)N(C2CCCCC2)[C@@H]1/C=C/c1ccccc1` (relative stereo): in data set [2], the inhibition of growth at 50 µM is 70.8%. The same measure, in the same setting: the result for `O=C1C(=O)N(CC(CO)N[C@@H]2C(=O)N(C3CCCCC3)[C@@H]2/C=C/c2ccccc2)c2ccc(Cl)cc21` (relative stereo) reads 61.8%; that for `O=C1C(=O)N(CC(CO)N[C@@H]2C(=O)N(C3CCCCC3)[C@@H]2/C=C/c2ccccc2)c2ccc(F)cc21` (relative stereo), 64.6%.

`O=C1C(=O)N(CC(CO)N[C@@H]2C(=O)N(C3CCCCC3)[C@@H]2/C=C/c2ccccc2)c2ccccc21` (relative stereo): the IC50 in data set [1] stood at 18.5 µM. Besides, the inhibition of growth at 50 µM in data set [2] is 93.6%. Consider `Cc1ccc(N2C(=O)[C@@H](NC(CO)CN3C(=O)C(=O)c4cc(C)ccc43)[C@H]2/C=C/c2ccccc2)cc1` (relative stereo), for which the inhibition of growth at 50 µM in data set [2] came out at 56%. On the same count and under the same terms, to `Cc1ccc(N2C(=O)[C@@H](NC(CO)CN3C(=O)C(=O)c4cc(F)ccc43)[C@H]2/C=C/c2ccccc2)cc1` (relative stereo) belongs 71.9%.

For the compound `Cc1ccc(N2C(=O)[C@@H](NC(CO)CN3C(=O)C(=O)c4ccccc43)[C@H]2/C=C/c2ccccc2)cc1` (relative stereo), the IC50 in data set [1] is 19.2 µM. The inhibition of growth at 50 µM in data set [2] stood at 95.3%.

In general, IC50 refers to the midpoint of a concentration-inhibition curve.
